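Briefly, cells in 96-well plates were exposed to five compound concentrations for 48 h, and endpoints were estimated by linear interpolation. TGI: total growth inhibition.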
Columns and labels:
Test in all cases: NCI-60 cell line screen, 48 h
[1] = test system: HCT-116 colon
[2] = test system: A498 renal
[3] = test system: HS 578T breast
[4] = test system: CCRF-CEM leukemia
[5] = test system: OVCAR-8 ovarian
[6] = test system: UO-31 renal
[7] = test system: SK-MEL-28 melanoma
[8] = test system: MCF7 breast
[9] = test system: M14 melanoma
[10] = test system: 786-0 renal
[11] = test system: EKVX NSCLC
[12] = test system: HCT-15 colon
[13] = test system: BT-549 breast
[14] = test system: SF-295 CNS
[15] = test system: MDA-MB-231 breast
[16] = test system: K-562 leukemia
[17] = test system: IGROV1 ovarian
[18] = test system: TK-10 renal
[19] = test system: SF-268 CNS
[20] = test system: T-47D breast
[21] = test system: HOP-62 NSCLC
[22] = test system: SNB-19 CNS
[23] = test system: ACHN renal
[24] = test system: OVCAR-3 ovarian
[25] = test system: SNB-75 CNS
[26] = test system: MALME-3M melanoma
[27] = test system: RXF 393 renal
[28] = test system: U251 CNS
[29] = test system: HOP-92 NSCLC
[30] = test system: SW-620 colon
[31] = test system: SF-539 CNS
[32] = test system: PC-3 prostate
[33] = test system: SK-MEL-2 melanoma
[34] = test system: LOX IMVI melanoma
[35] = test system: HT29 colon
[36] = test system: MOLT-4 leukemia
[37] = test system: KM12 colon
[38] = test system: SK-OV-3 ovarian
[39] = test system: NCI/ADR-RES ovarian
[40] = test system: NCI-H460 lung
[41] = test system: SK-MEL-5 melanoma
[42] = test system: MDA-MB-435
[43] = test system: RPMI-8226 leukemia
[44] = test system: UACC-62 melanoma
[45] = test system: DU-145 prostate
[46] = test system: SN12C renal
[47] = test system: CAKI-1 renal
[48] = test system: COLO 205 colon
[49] = test system: OVCAR-4 ovarian
[50] = test system: A549 NSCLC
[51] = test system: UACC-257 melanoma
[52] = test system: NCI-H23 lung
[53] = test system: HL-60(TB) leukemia
[54] = test system: NCI-H522 lung

In the case of `O=C1C=Cc2cscc21`, the TGI [1] is reported as 29.3 µM, the TGI [2] is reported as > 100 µM and the TGI [3] is reported as > 100 µM. For the same compound, the TGI [4] was 52.6 µM, the TGI [5] was > 100 µM and the TGI [6] was 85.8 µM. For the same compound, the TGI [7] was > 100 µM, the TGI [8] was 68.1 µM and the TGI [9] was 84.5 µM. For the same compound, the TGI [10] was 31.4 µM, the TGI [11] was > 100 µM and the TGI [12] was 66.9 µM. The TGI [13] was > 100 µM, the TGI [14] was > 100 µM and the TGI [15] was 80.6 µM. The TGI [16] was > 100 µM, the TGI [17] was > 100 µM and the TGI [18] was > 100 µM. For the same compound, the TGI [19] was > 100 µM, the TGI [20] was 81.5 µM and the TGI [21] was > 100 µM. For the same compound, the TGI [22] was > 100 µM, the TGI [23] was > 100 µM and the TGI [24] was 47.7 µM. The TGI [25] was > 100 µM, the TGI [26] was 63.7 µM and the TGI [27] was 32.8 µM. The TGI [28] was > 100 µM, the TGI [29] was > 100 µM and the TGI [30] was > 100 µM. The TGI [31] was > 100 µM, the TGI [32] was > 100 µM and the TGI [33] was > 100 µM. For the same compound, the TGI [34] was > 100 µM, the TGI [35] was > 100 µM and the TGI [36] was 37.5 µM. The TGI [37] was > 100 µM, the TGI [38] was > 100 µM and the TGI [39] was > 100 µM. The TGI [40] was > 100 µM, the TGI [41] was > 100 µM and the TGI [42] was > 100 µM. The TGI [43] was > 100 µM, the TGI [44] was > 100 µM and the TGI [45] was > 100 µM. For the same compound, the TGI [46] was 96.8 µM, the TGI [47] was 67 µM and the TGI [48] was > 100 µM. For the same compound, the TGI [49] was > 100 µM, the TGI [50] was > 100 µM and the TGI [51] was > 100 µM. For the same compound, the TGI [52] was > 100 µM, the TGI [53] was > 100 µM and the TGI [54] was 42.5 µM.

From PubChem BioAssay (NCI)
